Values joined by “and” are separate entries in the source; they are usually repeats but may differ in a detail not shown here. Equal values may be shown once.
Each compound was assayed against T1, Calcium-activated potassium channel subunit beta (Sus scrofa, UniProt C0KY85).
T1 sequence (C0KY85 whole entry): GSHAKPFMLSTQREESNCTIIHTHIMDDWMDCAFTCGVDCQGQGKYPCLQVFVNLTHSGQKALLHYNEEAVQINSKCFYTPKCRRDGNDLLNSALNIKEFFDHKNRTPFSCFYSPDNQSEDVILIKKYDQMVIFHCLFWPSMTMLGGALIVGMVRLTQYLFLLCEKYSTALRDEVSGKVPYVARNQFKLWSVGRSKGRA
For `CC(N/C(=N\C#N)Nc1ccncc1)C(C)(C)C` (stereo not drawn) [NSC_4826], the Ki was 0.251 µM and 0.104 µM.
A Ki of 0.0049 µM was found for `O=C1COCC2=NC3=C([C@H](c4ccc(F)c(I)c4)C12)S(=O)(=O)CC3` (stereo partly drawn) [A-312110] in this work.
`C[C@](O)(C(=O)Nc1ccc(C(=O)c2ccccc2)cc1)C(F)(F)F` [ZD-6169] was tested, and the Ki was 0.63 µM and 0.451 µM.
With `CCC(C)(C)NC(=NC#N)Nc1cccnc1` [NSC_43345] the Ki was 0.0206 µM and 0.0105 µM.
In the case of `N#Cc1cccc(C2C3=C(CCCC3=O)N=C3CCCC(=O)C32)c1` (stereo not drawn) [zm244085], the Ki is reported as 2.77 µM and 0.671 µM.
In the case of `CC1=NS(=O)(=O)c2cc(Cl)ccc2N1` [NSC_3019], the Ki is reported as > 10 µM.
In the case of `CC1(C)Oc2ccc(C#N)cc2C(N2CCCC2=O)C1O` (stereo not drawn) [NSC_93504], the Ki is reported as 0.542 µM and 0.157 µM.
In the case of `CCOc1ccccc1N=C(C[N+](=O)[O-])NC(C)C(C)(C)C` (stereo not drawn) [CAS_3038059], the Ki is reported as 0.0413 µM and 0.016 µM.
